This note sets out measurements from paper PMC12057359, “Inhibitory effect of copper chelators on the budding in Candida albicans” (Antimicrobial Agents and Chemotherapy, 2025).

Where two headings read alike, the source gives them in different places. A value given as a limit tells only on which side of the number the result lay.

The nature of data set [1]: iHOPE in vitro cytotoxicity assessment (Cell Count Reagent SF). It is filed as cell-based, human. The conditions noted are these: human.
Procedure: The method for in vitro cytotoxicity assessment using Cell Count Reagent SF (Nacalai Tesque) has been described previously ([15]). […] Test compounds were added to the culture medium, and then the plates were incubated at 28°C for 24 h.
In data set [2] the test system is E. coli HO-141. In words: iHOPE antimicrobial microdilution assay. As to conditions: Escherichia coli, HO141; SD in parentheses, n = 3; read-out: IC50 against E. coli HO-141. It is filed as cell-based, Escherichia coli. (Broth dilution looks for growth in wells or tubes with falling amounts of substance.)
Data set [3] deals with P. oryzae Kita-1. Briefly: microbe, parasite or virus in culture. As to conditions: Pyricularia oryzae, KITA1, read-out: IC50 against P. oryzae Kita-1. It is filed as cell-based, Pyricularia oryzae.
Data set [4] deals with S. aureus 209P. In words: iHOPE antimicrobial microdilution assay. It counts as cell-based, Staphylococcus aureus. As to conditions: Staphylococcus aureus, 209P; SD in parentheses, n = 3; read-out: IC50 against S. aureus 209P.
The test system of data set [5] is C. tropicalis JCM1541. Briefly: iHOPE antimicrobial microdilution assay (turbidity OD600). It is filed as cell-based. As to conditions: Candida tropicalis, JCM1541; MOPS-RPMI medium, 24 h; SD in parentheses, n = 3; read-out: IC50 against C. tropicalis JCM1541.
The test system of data set [6] is C. auris Ci6684. The data set is described as above. As to conditions: Candidozyma auris, CI6684; MOPS-RPMI medium, 24 h; SD in parentheses, n = 3; read-out: IC50 against C. auris Ci6684. It is filed as cell-based, Candida auris.
For data set [7], the system named is C. glabrata JCM3761. The data set is described as above. It counts as cell-based, Candida glabrata. As to conditions: Nakaseomyces glabratus, JCM3761; MOPS-RPMI medium, 24 h; SD in parentheses, n = 3; read-out: IC50 against C. glabrata JCM3761.
In data set [8] the test system is C. auris VPCI673. The data set is described as above. It is filed as cell-based, Candida auris. As to conditions: Candidozyma auris, VPCI673; MOPS-RPMI medium, 24 h; SD in parentheses, n = 3; read-out: IC50 against C. auris VPCI673.
The test system of data set [9] is C. albicans JCM1542. It is filed as cell-based, Candida albicans.
Data set [10] has as its system C. albicans JCM1542. In words: iHOPE antimicrobial microdilution assay (turbidity OD600). It counts as cell-based, Candida albicans.
Data set [11] has as its system A. fumigatus Af293. In words: iHOPE antimicrobial microdilution assay. It is filed as cell-based, Aspergillus fumigatus. As to conditions: Aspergillus fumigatus, AF293; SD in parentheses, n = 3; read-out: IC50 against A. fumigatus Af293.
Where [12] appears, read: C. albicans JCM1542, MOPS-RPMI medium, 24 h.
The mark [13] stands for this setting: Candida albicans, JCM1542; MOPS-RPMI medium, 28°C, 24 h, OD600; standard deviation in parentheses, n = 3; read-out: IC50 against C. albicans JCM1542.
Where [14] appears, read: SD in parentheses, n = 3, read-out: IC50 against HL-60 RCB0041 (cytotoxicity).
The mark [15] stands for this setting: Candida albicans, JCM1542, 24 h, read-out: IC50 against C. albicans JCM1542.

`Nc1nc(=O)[nH]cc1F` [5-FC, 5-fluorocytosine]: the IC50 (in general, the concentration needed to halve the response being measured) in data set [1] is greater than 30 µM; in [2], greater than 30 µM; in [3], greater than 30 µM; in data set [4] it was greater than 30 µM; in data set [5] it was 0.11 µM; in data set [6], 0.37 µM. Besides, the concentration for half-maximal inhibition (IC50) in data set [7] came out at 0.081 µM; in data set [8], 0.27 µM; in data set [10] (setting [13]), 0.19 µM; in [11], 15 µM. In addition, the “morphological change induced in C. albicans” value (shortened to “morphological change induced”) in [9] (setting [12]) was “hyphal-rich morphology”.

As for `[C-]#[N+][C@H](C)CC(=O)NCc1ccc(N)cc1` [8a], the half-inhibitory concentration (IC50) in [1] (setting [14]) was greater than 30 µM; in data set [10] (setting [13]), 0.77 µM. The “antifungal activity / inhibition of budding against C. albicans (in words)” value (“antifungal activity / inhibition” below) in data set [10] (C. albicans JCM1542) was “weak antifungal activity and inhibition of budding”.

As to `[C-]#[N+][C@@H](C)CC(=O)NCc1ccc(N)cc1` [8b], the IC50 in data set [1] (setting [14]) was greater than 30 µM; in data set [10] (setting [13]) it was 1.8 µM. Further, the “antifungal activity / inhibition” value in data set [10] (C. albicans JCM1542) is “weak antifungal activity and inhibition of budding”.

On to `[C-]#[N+][C@H](C)CC(=O)NCc1ccc(NC(=O)C[C@@H](C)[N+]#[C-])cc1` [10a], for which the IC50 in data set [1] (setting [14]) is greater than 30 µM; in data set [10] (setting [13]), 0.38 µM.

`[C-]#[N+][C@@H](C)CC(=O)NCc1ccc(NC(=O)C[C@H](C)[N+]#[C-])cc1` [10b]: the IC50 is greater than 30 µM in data set [1] (setting [14]) and 0.19 µM in data set [10] (setting [13]).

In the case of `[C-]#[N+][C@H](C)CC(=O)NCCc1ccc(NC(=O)C[C@@H](C)[N+]#[C-])cc1` [12a], the IC50 in [1] (setting [14]) is greater than 30 µM; in data set [5], 0.013 µM; in data set [6], 0.058 µM; in data set [7], 0.01 µM; in data set [8], 0.18 µM; in [10] (setting [13]), 0.012 µM.

Take `[C-]#[N+][C@@H](C)CC(=O)NCCc1ccc(NC(=O)C[C@H](C)[N+]#[C-])cc1` [12b]: the IC50 is greater than 30 µM in [1] (setting [14]); 0.012 µM in [5]; 0.055 µM in data set [6]; 0.012 µM in [7]; 0.14 µM in [8]; 0.012 µM in data set [10] (setting [13]).

`[C-]#[N+][C@H](C)CC(=O)Nc1ccc(NC(=O)C[C@@H](C)[N+]#[C-])cc1` [13a]: the IC50 was greater than 30 µM in data set [1] (setting [14]) and 0.41 µM in data set [10] (setting [13]).

As for `[C-]#[N+][C@@H](C)CC(=O)Nc1ccc(NC(=O)C[C@H](C)[N+]#[C-])cc1` [13b], the IC50 was greater than 30 µM in [1] (setting [14]) and 0.034 µM in data set [10] (setting [13]).

As to `[C-]#[N+][C@H](C)CC(=O)Nc1cccc(NC(=O)C[C@@H](C)[N+]#[C-])c1` [14a], the figures for the IC50 in data set [1] (setting [14]) and in [10] (setting [13]) were greater than 30 µM and 0.054 µM, respectively.

For `[C-]#[N+][C@@H](C)CC(=O)Nc1cccc(NC(=O)C[C@H](C)[N+]#[C-])c1` [14b], the IC50 in [1] (setting [14]) was greater than 30 µM; in data set [10] (setting [13]) it was 0.02 µM.

`[C-]#[N+][C@H](C)CC(=O)N[C@H]1CC[C@@H](NC(=O)C[C@@H](C)[N+]#[C-])CC1` [15a]: the IC50 is greater than 30 µM in data set [1] (setting [14]); 0.032 µM in data set [5]; 0.049 µM in [6]; 0.0082 µM in data set [7]; 0.064 µM in [8]; 0.015 µM in data set [10] (setting [13]).

Consider `[C-]#[N+][C@@H](C)CC(=O)N[C@H]1CC[C@@H](NC(=O)C[C@H](C)[N+]#[C-])CC1` [15b], for which the IC50 in [1] (setting [14]) was greater than 30 µM; in data set [5], 0.026 µM; in data set [6], 0.062 µM; in data set [7] it was 0.01 µM; in data set [8], 0.034 µM; in [10] (setting [13]), 0.019 µM.

`[C-]#[N+][C@H](C)CC(=O)N[C@H]1CC[C@H](NC(=O)C[C@@H](C)[N+]#[C-])CC1` [16a]: the IC50 was greater than 30 µM in [1] (setting [14]) and 0.61 µM in data set [10] (setting [13]).

Consider `[C-]#[N+][C@@H](C)CC(=O)N[C@H]1CC[C@H](NC(=O)C[C@H](C)[N+]#[C-])CC1` [16b], for which the IC50 in data set [1] (setting [14]) is greater than 30 µM; in data set [10] (setting [13]), 0.61 µM.

Regarding `C[C@@H]1[C@H](O)[C@@H](C)/C=C/C=C/C=C/C=C/C=C/C=C/C=C/[C@H](O[C@@H]2O[C@H](C)[C@@H](O)[C@H](N)[C@@H]2O)C[C@@H]2O[C@](O)(C[C@@H](O)C[C@@H](O)[C@H](O)CC[C@@H](O)C[C@@H](O)CC(=O)O[C@H]1C)C[C@H](O)[C@H]2C(=O)O` [Amphotericin B, amphotericin B], the 50% inhibitory concentration (IC50) in [1] is 17 µM; in data set [2], greater than 30 µM; in data set [3] it was 0.16 µM; in [4] it was greater than 30 µM; in data set [5] it was 0.046 µM; in data set [6], 0.41 µM. Also, the IC50 was 0.063 µM in data set [7], 0.44 µM in [8], 0.039 µM in data set [10] (setting [13]) and 0.21 µM in data set [11]. The “morphological change induced” value in [9] is reported as “yeast-rich morphology”.

Consider `CCCCCC[C@H]1C(=O)O[C@H](C)[C@H](NC(=O)c2cccc(NC=O)c2O)C(=O)O[C@@H](C)[C@@H]1OC(=O)CC(C)C` [Antimycin A, antimycin A], for which, in data set [10] (setting [15]), the IC50 came out at 0.035 µM.

Take `CC(C)(S)[C@@H](N)C(=O)O` [D-Penicillamine, D-penicillamine]: the IC50 in [1], in data set [2], in data set [3], in [4], in [5] and in [6] was greater than 1000 µM each time. For the same compound, the concentration for half-maximal inhibition (IC50) in [7] is 270 µM; in data set [8], greater than 1000 µM; in data set [11], greater than 1000 µM. In addition, in data set [9] (setting [12]), the “morphological change induced” value is “morphological changes similar to those observed with SF2768”.

Consider `OC(Cn1cncn1)(Cn1cncn1)c1ccc(F)cc1F` [Fluconazole, fluconazole], for which the half-inhibitory concentration (IC50) in data set [1] (HL-60 RCB0041 cells (promyelocytic leukemia cell line), SD in parentheses, n = 3, read-out: IC50 against HL-60 RCB0041 (cytotoxicity)) was greater than 30 µM; in [2], greater than 30 µM; in [3], greater than 30 µM; in data set [4] it was greater than 30 µM; in data set [5], 0.4 µM; in [6], greater than 30 µM. The IC50 in data set [7] is 0.69 µM; in data set [8], greater than 30 µM; in data set [10] (setting [13]), 0.39 µM; in [11], greater than 30 µM. Moreover, the “morphological change induced” value in data set [9] is reported as “yeast-rich morphology”.

On to `OO` [H2O2], for which the IC50 in data set [10] (MOPS-RPMI medium, 28°C, 24 h, OD600; standard deviation in parentheses, n = 3; read-out: IC50 against C. albicans JCM1542) is 550 µM.

For `C/C=C(\C)[C@H](O)[C@H](C)/C=C(C)/C=C/C/C(C)=C/Cc1nc(OC)c(OC)c(O)c1C` [Piericidin A, piericidin A], the IC50 in data set [10] (setting [15]) stood at 12 µM.

Turning to `COc1cc(-c2ccccn2)nc(/C=N/O)c1SC` [collismycin], the “morphological change induced” value in [9] (setting [12]) was “elongated, but not as long as SF2768, and tortuous hyphae”.

As to `C/C=C/C(=O)NCc1ccc(N)cc1` [compound 9], the IC50 in data set [1] (setting [14]) and in data set [10] (setting [13]) was greater than 30 µM each time. For the same compound, the “antifungal activity / inhibition” value in data set [10] (C. albicans JCM1542) is recorded as “did not mediate any changes in either the survival rate or morphology”.

`CCCC(=O)NCc1ccc(NC(=O)CCC)cc1` [compound 11]: the IC50 in [1] (setting [14]) and in data set [10] (setting [13]) was greater than 30 µM each time. Also, the “antifungal activity / inhibition” value in data set [10] (C. albicans JCM1542) is “did not mediate any changes in either the survival rate or morphology”.

Turning to `CC(C)=CCC/C(C)=C/CC/C(C)=C/CO` [farnesol], the “growth form of C. albicans under hyphal growth conditions” value in data set [9] (3 µM, MOPS-RPMI) is on record as “the cells grew as yeast form”.

For the compound oligomycin A, the IC50 in data set [10] (read-out: IC50 against C. albicans JCM1542; MOPS-RPMI medium, 28°C, 24 h, OD600; standard deviation in parentheses, n = 3) is 3.1 µM.
